Test results from PubChem BioAssay (NCI).
Where “and” joins values, the source holds several entries; their conditions need not be identical. Equal entries are not always repeated.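 Growth conditions: 96-well plates. Treatment: test compound, 48 hours, 5 concentrations. Analysis: linear interpolation between bracketing concentrations; unreached endpoints set to highest concentration. At the GI50, growth is halved. Definition used: TGI = concentration required for complete inhibition of growth.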

Legend:
Test in all cases: DTP human tumour cell line panel, 48 h
UACC-62 melanoma = test system: UACC-62 melanoma
HOP-92 NSCLC = test system: HOP-92 NSCLC
HS 578T breast = test system: HS 578T breast
NCI-H460 lung = test system: NCI-H460 lung
HL-60(TB) leukemia = test system: HL-60(TB) leukemia
SN12C renal = test system: SN12C renal
NCI/ADR-RES ovarian = test system: NCI/ADR-RES ovarian
SK-MEL-2 melanoma = test system: SK-MEL-2 melanoma
OVCAR-4 ovarian = test system: OVCAR-4 ovarian
SNB-75 CNS = test system: SNB-75 CNS

O=C(Nc1ccc(-n2cc(-c3ccncc3)c(-c3ccc(Cl)c(O)c3)n2)cc1)c1ccc(Cl)c(Cl)c1
GI50 (UACC-62 melanoma): 3.22 µM
TGI (UACC-62 melanoma): 22.4 µM
GI50 (HOP-92 NSCLC): 8.97 µM
TGI (HOP-92 NSCLC): > 100 µM
GI50 (HS 578T breast): 3.83 µM
TGI (HS 578T breast): > 100 µM
GI50 (NCI-H460 lung): 3.09 µM
TGI (NCI-H460 lung): > 100 µM
GI50 (HL-60(TB) leukemia): 2.97 µM
TGI (HL-60(TB) leukemia): 6.35 µM
GI50 (SN12C renal): 5.7 µM
TGI (SN12C renal): > 100 µM
GI50 (NCI/ADR-RES ovarian): 4.91 µM
TGI (NCI/ADR-RES ovarian): > 100 µM
GI50 (SK-MEL-2 melanoma): 4.05 µM
TGI (SK-MEL-2 melanoma): > 100 µM
GI50 (OVCAR-4 ovarian): > 100 µM
TGI (OVCAR-4 ovarian): > 100 µM
GI50 (SNB-75 CNS): 3.92 µM
TGI (SNB-75 CNS): > 100 µM

COc1cc(OC)c(OC)cc1/C=C\c1ccnc2ccccc12
TGI (UACC-62 melanoma): > 67.9 µM
TGI (HOP-92 NSCLC): 45 µM
TGI (HS 578T breast): 1.15 µM
TGI (NCI-H460 lung): 37.3 µM
TGI (HL-60(TB) leukemia): 5 µM
TGI (SN12C renal): > 100 µM
TGI (NCI/ADR-RES ovarian): 12.1 µM
TGI (SK-MEL-2 melanoma): 7.4 µM
TGI (OVCAR-4 ovarian): > 100 µM
TGI (SNB-75 CNS): 2.51 µM

CSc1ccc2c(c1)N(CCCN(C)C)c1ccccc1S2
TGI (UACC-62 melanoma): 22.4 µM
TGI (HOP-92 NSCLC): 26.8 µM
TGI (HS 578T breast): 28.7 µM
TGI (NCI-H460 lung): 26.5 µM
TGI (HL-60(TB) leukemia): 31.3 µM
TGI (SN12C renal): 28.5 µM
TGI (NCI/ADR-RES ovarian): 26.2 µM
TGI (SK-MEL-2 melanoma): 29.5 µM
TGI (OVCAR-4 ovarian): 24.5 µM
TGI (SNB-75 CNS): 20.8 µM

Cc1nc(Nc2ccc(Cl)c(Cl)c2)sc1C(/C=C/c1ccc2c(c1)OCO2)=N/Nc1ccc([N+](=O)[O-])cc1[N+](=O)[O-]
TGI (UACC-62 melanoma): > 88 µM
TGI (HOP-92 NSCLC): > 100 µM
TGI (HS 578T breast): > 100 µM
TGI (NCI-H460 lung): > 100 µM
TGI (HL-60(TB) leukemia): > 100 µM
TGI (SN12C renal): > 100 µM
TGI (NCI/ADR-RES ovarian): > 100 µM
TGI (SK-MEL-2 melanoma): > 100 µM
TGI (OVCAR-4 ovarian): > 100 µM
TGI (SNB-75 CNS): 32.8 µM

C#CCN(CCCOc1ccc(Cl)cc1Cl)CCCSC(=O)CCCCCN1/C(=C\C=C2/CCCC(/C=C/C3=[N+](CCCCCC(=O)[O-])c4ccccc4C3(C)C)=C2Cl)C(C)(C)c2ccccc21
GI50 (UACC-62 melanoma): 1.15 µM
TGI (UACC-62 melanoma): 3.14 µM
GI50 (HOP-92 NSCLC): 1.57 µM
TGI (HOP-92 NSCLC): 3.53 µM
GI50 (HS 578T breast): 1.47 µM
TGI (HS 578T breast): 6.4 µM
GI50 (NCI-H460 lung): 1.77 µM
TGI (NCI-H460 lung): 5.01 µM
GI50 (HL-60(TB) leukemia): 1.62 µM
TGI (HL-60(TB) leukemia): 4.79 µM
GI50 (SN12C renal): 0.587 µM
TGI (SN12C renal): 2.74 µM
GI50 (NCI/ADR-RES ovarian): 20.2 µM
TGI (NCI/ADR-RES ovarian): 62.3 µM
GI50 (SK-MEL-2 melanoma): 1.77 µM
TGI (SK-MEL-2 melanoma): 4.2 µM
GI50 (OVCAR-4 ovarian): 2.02 µM
TGI (OVCAR-4 ovarian): 6.72 µM
GI50 (SNB-75 CNS): 1.3 µM
TGI (SNB-75 CNS): 3.85 µM

C=C1CCC2C(C)(CO)C(O)CCC2(C)C1C/C=C1\C(=O)OCC1O (stereo not given)
TGI (UACC-62 melanoma): 57.5 µM
TGI (HOP-92 NSCLC): 66.1 µM
TGI (HS 578T breast): > 100 µM
TGI (NCI-H460 lung): 59.2 µM
TGI (HL-60(TB) leukemia): > 100 µM
TGI (SN12C renal): 35.8 µM
TGI (NCI/ADR-RES ovarian): > 100 µM
TGI (SK-MEL-2 melanoma): 30.8 µM
TGI (OVCAR-4 ovarian): 23.5 µM
TGI (SNB-75 CNS): 30.5 µM

CNc1ccc(CSc2ccc(C)cc2)cc1
GI50 (UACC-62 melanoma): 17.3 µM
TGI (UACC-62 melanoma): 52.9 µM
GI50 (HOP-92 NSCLC): 2.36 µM
TGI (HOP-92 NSCLC): 25.9 µM
GI50 (HS 578T breast): 56 µM
TGI (HS 578T breast): > 100 µM
GI50 (NCI-H460 lung): 25.3 µM
TGI (NCI-H460 lung): > 100 µM
GI50 (HL-60(TB) leukemia): 1.32 µM
TGI (HL-60(TB) leukemia): 4.28 µM
GI50 (SN12C renal): 3.62 µM
TGI (SN12C renal): 53.6 µM
GI50 (NCI/ADR-RES ovarian): 21.4 µM
TGI (NCI/ADR-RES ovarian): > 100 µM
GI50 (SK-MEL-2 melanoma): 38.5 µM
TGI (SK-MEL-2 melanoma): > 100 µM
GI50 (OVCAR-4 ovarian): 7.44 µM
TGI (OVCAR-4 ovarian): > 100 µM
GI50 (SNB-75 CNS): 11.9 µM
TGI (SNB-75 CNS): > 100 µM

COc1ccc(-c2nc3sccn3c2/C=C/C(=O)c2cc(OC)c(OC)c(OC)c2)cc1
GI50 (UACC-62 melanoma): 2.08 µM
TGI (UACC-62 melanoma): 9.15 µM
GI50 (HOP-92 NSCLC): 0.4 µM
TGI (HOP-92 NSCLC): 4.59 µM
GI50 (HS 578T breast): 2.18 µM
TGI (HS 578T breast): > 24.1 µM
GI50 (NCI-H460 lung): 2.54 µM
TGI (NCI-H460 lung): 11.1 µM
GI50 (HL-60(TB) leukemia): 3.33 µM
TGI (HL-60(TB) leukemia): 82.3 µM
GI50 (SN12C renal): 3 µM
TGI (SN12C renal): > 100 µM
GI50 (NCI/ADR-RES ovarian): 2.66 µM
TGI (NCI/ADR-RES ovarian): > 28 µM
GI50 (SK-MEL-2 melanoma): 3.58 µM
TGI (SK-MEL-2 melanoma): > 26.3 µM
GI50 (OVCAR-4 ovarian): 3.21 µM
TGI (OVCAR-4 ovarian): > 100 µM
GI50 (SNB-75 CNS): 1.3 µM
TGI (SNB-75 CNS): > 20.7 µM

CC(C)(C)c1cnc(CSc2cnc(NC(=O)C3CCNCC3)s2)o1
GI50 (UACC-62 melanoma): 0.16 µM and 0.178 µM
TGI (UACC-62 melanoma): 0.403 µM and 0.702 µM
GI50 (HOP-92 NSCLC): 0.114 µM and 0.17 µM
TGI (HOP-92 NSCLC): 0.544 µM and 0.657 µM
GI50 (HS 578T breast): 0.334 µM and 0.226 µM
TGI (HS 578T breast): > 2.64 µM
GI50 (NCI-H460 lung): 0.306 µM and 0.319 µM
TGI (NCI-H460 lung): 25.4 µM and > 10 µM
GI50 (HL-60(TB) leukemia): 0.0937 µM and 0.0791 µM
TGI (HL-60(TB) leukemia): 0.976 µM and 0.461 µM
GI50 (SN12C renal): 0.262 µM and 0.215 µM
TGI (SN12C renal): > 63.3 µM
GI50 (NCI/ADR-RES ovarian): 45.5 µM
TGI (NCI/ADR-RES ovarian): > 100 µM
GI50 (SK-MEL-2 melanoma): 0.124 µM and 0.197 µM
TGI (SK-MEL-2 melanoma): 0.284 µM and 0.518 µM
GI50 (OVCAR-4 ovarian): 0.273 µM and 0.281 µM
TGI (OVCAR-4 ovarian): 2.67 µM and > 8.21 µM
GI50 (SNB-75 CNS): 0.15 µM and 0.124 µM
TGI (SNB-75 CNS): 0.4 µM and 0.324 µM

c1ccc(-c2nc3ccccc3[nH]2)c(OCCCCCOc2ccccc2-c2nc3ccccc3[nH]2)c1
GI50 (UACC-62 melanoma): 12.8 µM
TGI (UACC-62 melanoma): 27.6 µM
GI50 (HOP-92 NSCLC): 2.55 µM
TGI (HOP-92 NSCLC): 14.7 µM
GI50 (HS 578T breast): 15.4 µM
TGI (HS 578T breast): 41 µM
GI50 (NCI-H460 lung): 3.75 µM
TGI (NCI-H460 lung): 25.6 µM
GI50 (HL-60(TB) leukemia): 2.57 µM
TGI (HL-60(TB) leukemia): 7.76 µM
GI50 (SN12C renal): 8.55 µM
TGI (SN12C renal): 24.5 µM
GI50 (NCI/ADR-RES ovarian): 5.74 µM
TGI (NCI/ADR-RES ovarian): 33.3 µM
GI50 (SK-MEL-2 melanoma): 8.96 µM
TGI (SK-MEL-2 melanoma): 24.6 µM
GI50 (OVCAR-4 ovarian): 2.92 µM
TGI (OVCAR-4 ovarian): 8.97 µM
GI50 (SNB-75 CNS): 8.78 µM
TGI (SNB-75 CNS): 47.4 µM
